From patent US20080280849A1, “Synergic Combinations Comprising a Quinoline Compound and Other Hiv Infection Therapeutic Agents” (priority 2005, published 2008)
pIC50: −log10 of the molar value. Where two headings read alike, the source gives them in different places. One block for each compound: values may come before it.

Test system: NL43 HIV-1 laboratory strain
Experiment: NL43 HIV-1 laboratory strain replication assay with HelaCD4+β-Gal indicator cells (P4 cells), CPRG development, CalcuSyn analysis
Format: cell-based
Experimental: Synergistic interactions between quinoline compounds (BA011FZ041) and either RT (zidovudine and nevirapine) or other integrase inhibitors (L-731,988) were investigated using a NL43 HIV-1 laboratory strain replication assay. Virus infectivity in the presence of inhibitors was monitored with HelaCD4+β-Gal indicator cells (P4 cells). Inhibition by combination of BA011FZ041 and other inhibitors was evaluated at three fixed molar BA011FZ041/Inhibitor ratios: 1:1, 1:2, and 2:1. Three independent experiments with triplicate data points were performed for each ratio. Interactions were calculated by the multiple drug effect equation of Chou and Talalay (Chou and Talalay, 1983; and Chou and Talalay, 1984) based on the median effect principle, using CalcuSyn® software (Biosoft, UK).
On the day prior to the test, 5,000 HeLaP4 cells per well are seeded in 100 μl of 10% FBS DMEM supplemented with […] penicillin, 100 μg/ml streptomycin and 0.5 mg/ml geniticin (G418). Otherwise, in the morning of the test, 10,000 HeLaP4 cells are seeded per well in 100 μl of 10% FBS DMEM supplemented with […] penicillin, 100 μg/ml streptomycin and 0.5 mg/ml geniticin (G418).
One plate of cells is used for the 2 drugs alone+half a plate per ratio tested is used for development with CPRG and, as necessary, an equivalent number of plates for the MTT toxicity test.
Several drug-drug ratios are tested: 1:1, 1:2, 2:1, 1:4 and 4:1.
Ratios are expressed relative to IC50 values. For the 1:1 ratio, the IC50 concentration for (BA011FZ041+drug X) is the IC50 concentration for BA011FZ041+the IC50 concentration for drug X.
For the 1:2 ratio, the IC50 concentration for (BA011FZ041+drug X) is the IC50 concentration for BA011FZ041+twice the IC50 concentration for drug X.
The form of BA011FZ041 tested is the sodium carbonate salt.
Further dilutions are also performed using PBS and are then distributed at 5 μl per well. • For DMSO: the molecules are resuspended at a concentration 200-fold higher than that finally required in the well so that DMSO be non toxic for the HeLa P4 cells. The quantity of DMSO is constant for each drug concentration tested.
In practice, initial dilutions are performed using DMSO, with these solutions then being rediluted fivefold in PBS or culture medium so as to obtain concentrations 40-fold higher than those finally required in the well. The solutions are then distributed at 5 μl per well.
Prior to infection, the wells are filled up to a final volume of 200 μl with 40 or 45 μl of medium.
NL4.3 viral supernatant has been produced by CaCl2 transfection of 293T cells. The HeLa P4 cells are infected with NL 4.3 HIV virus, with about 1 to 2 ng of P24 per well.
Depending on the P24 content of the virus used, a virus solution+10% FBS DMEM supplemented with […] penicillin, 100 μg/ml streptomycin and 0.5 mg/ml geniticin (G418) is prepared and is then distributed at 50 μl per well.
The plates are incubated at 37° C., 5% CO2, for 60 hours.
The CPRG (chlorophenol red-β-D-galactopyranoside) test is a […] test enabling measurement of the quantity of β-galactosidase produced during viral infection (the β-gal gene is under the control of the TAR element which in turn is controlled by the viral. TAT).
The supernatant is removed from the plates of HelaP4 cells. 100 μl of CPRG lysis buffer is added per well (for 110 wells: Na2HPO4 (0.5M) 1687 μL, NaH2PO4 (1M) 440 μL, KCl (1M) 110 μL, MgSO4 (1M) 220 μL, EDTA (0.5M) 55 μL, β-mercaptoethanol 39 μL, NP40 14 μL, water 8617 μL).
The cells are incubated for 10 minutes at 37° C. in order to obtain full cell lysis. The lysed wells are homogenized and 50 μl of each lysate is transferred into the corresponding well of another plate containing 100 μl reaction buffer (for 110 wells: pH 7.4 phosphate buffer (1M) 880 μL, MgCl2 99 μL, β-mercaptoethanol 77 μL, water 8140 μL, CPRG (250 mg of CPRG dissolved in 9.1 ml of Millipore water+455 μl pH 7.4 sodium phosphate buffer) 1833 μL).

- pIC50 (Human immunodeficiency virus 1, NL43, Table 8, Ratio 1:1 series, drug alone, Mean, read-out: IC50 ZVD, drug alone): 7.54
- pIC50 (Human immunodeficiency virus 1, NL43, Table 8, Ratio 1:2 series, drug alone, Mean, read-out: IC50 ZVD, drug alone): 7.34
- pIC50 (Human immunodeficiency virus 1, NL43, Table 8, Ratio 2:1 series, drug alone, Mean, read-out: IC50 ZVD, drug alone): 7.36
- pIC50 (Human immunodeficiency virus 1, NL43, in the mix with FZ41, Ratio 1:1, Mean, read-out: IC50 ZVD, in the mix): 7.80
- pIC50 (Human immunodeficiency virus 1, NL43, in the mix with FZ41, Ratio 1:2, Mean, read-out: IC50 ZVD, in the mix): 7.55
- pIC50 (Human immunodeficiency virus 1, NL43, in the mix with FZ41, Ratio 2:1, Mean, read-out: IC50 ZVD, in the mix): 7.96
Compound: Cc1cn([C@H]2C[C@H](N=[N+]=[N-])[C@@H](CO)O2)c(=O)[nH]c1=O [ZVD, 3′-azido-3′-deoxythymidine]

- pIC50 (Table 6, Ratio 1:1 series with Nev, drug alone, Mean, read-out: IC50 FZ41, drug alone): 5.80
- pIC50 (Table 6, Ratio 1:2 series with Nev, drug alone, Mean, read-out: IC50 FZ4, drug alone): 5.82
- pIC50 (Table 6, Ratio 2:1 series with Nev, drug alone, Mean, read-out: IC50 FZ41, drug alone): 5.82
- pIC50 (Table 8, Ratio 1:1 series with ZVD, drug alone, Mean, read-out: IC50 FZ41, drug alone): 5.85
- pIC50 (Table 8, Ratio 1:2 series with ZVD, drug alone, Mean, read-out: IC50 FZ41, drug alone): 5.77
- pIC50 (Table 8, Ratio 2:1 series with ZVD, drug alone, Mean, read-out: IC50 FZ41, drug alone): 5.77
- pIC50 (Table 10, Ratio 1:1 series with L-731,988, drug alone, Mean, read-out: IC50 FZ41, drug alone): 5.89
- pIC50 (Table 10, Ratio 1:2 series with L-731,988, drug alone, Mean, read-out: IC50 FZ41, drug alone): 5.89
- pIC50 (Table 10, Ratio 2:1 series with L-731,988, drug alone, Mean, read-out: IC50 FZ41, drug alone): 5.89
- pIC50 (in the mix with L-731,988, Ratio 1:1, Mean, read-out: IC50 FZ41, in the mix): 6.05
- pIC50 (in the mix with L-731,988, Ratio 1:2, Mean, read-out: IC50 FZ41, in the mix): 6.10
- pIC50 (in the mix with L-731,988, Ratio 2:1, Mean, read-out: IC50 FZ41, in the mix): 5.96
- pIC50 (in the mix with Nev, Ratio 1:1, Mean, read-out: IC50 FZ41, in the mix): 5.96
- pIC50 (in the mix with Nev, Ratio 1:2, Mean, read-out: IC50 FZ4, in the mix): 6.05
- pIC50 (in the mix with Nev, Ratio 2:1, Mean, read-out: IC50 FZ41, in the mix): 5.92
- pIC50 (in the mix with ZVD, Ratio 1:1, Mean, read-out: IC50 FZ41, in the mix): 6.10
- pIC50 (in the mix with ZVD, Ratio 1:2, Mean, read-out: IC50 FZ41, in the mix): 6.15
- pIC50 (in the mix with ZVD, Ratio 2:1, Mean, read-out: IC50 FZ41, in the mix): 5.96
Compound: COc1cc(C=Cc2ccc3ccc(C(=O)O)c(O)c3n2)cc(O)c1O [BA011FZ041, 8-hydroxy-2-[2-[(3,4-dihydroxy-5-methoxy-phenyl)ethenyl]]7-quinoline carboxylic acid]

- pIC50 (Human immunodeficiency virus 1, NL43, Table 6, Ratio 1:1 series, drug alone, Mean, read-out: IC50 Nev, drug alone): 7.41
- pIC50 (Human immunodeficiency virus 1, NL43, Table 6, Ratio 1:2 series, drug alone, Mean, read-out: IC50 Nev, drug alone): 7.39
- pIC50 (Human immunodeficiency virus 1, NL43, Table 6, Ratio 2:1 series, drug alone, Mean, read-out: IC50 Nev, drug alone): 7.41
- pIC50 (Human immunodeficiency virus 1, NL43, in the mix with FZ41, Ratio 1:1, Mean, read-out: IC50 Nev, in the mix): 7.96
- pIC50 (Human immunodeficiency virus 1, NL43, in the mix with FZ41, Ratio 1:2, Mean, read-out: IC50 Nev, in the mix): 7.74
- pIC50 (Human immunodeficiency virus 1, NL43, in the mix with FZ41, Ratio 2:1, Mean, read-out: IC50 Nev, in the mix): 8.20
Compound: Cc1ccnc2c1NC(=O)c1cccnc1N2C1CC1 [Nev]

- pIC50 (Human immunodeficiency virus 1, NL43, Table 10, Ratio 1:1 series, drug alone, Mean, read-out: IC50 L-731,988, drug alone): 5.82
- pIC50 (Human immunodeficiency virus 1, NL43, Table 10, Ratio 1:2 series, drug alone, Mean, read-out: IC50 L-731,988, drug alone): 5.82
- pIC50 (Human immunodeficiency virus 1, NL43, Table 10, Ratio 2:1 series, drug alone, Mean, read-out: IC50 L-731,988, drug alone): 5.82
- pIC50 (Human immunodeficiency virus 1, NL43, in the mix with FZ41, Ratio 1:1, Mean, read-out: IC50 L-731,988, in the mix): 6.52
- pIC50 (Human immunodeficiency virus 1, NL43, in the mix with FZ41, Ratio 1:2, Mean, read-out: IC50 L-731,988, in the mix): 6.30
- pIC50 (Human immunodeficiency virus 1, NL43, in the mix with FZ41, Ratio 2:1, Mean, read-out: IC50 L-731,988, in the mix): 6.70
Compound: O=C(O)C(=O)CC(=O)c1cccn1Cc1ccc(F)cc1 [L-731,988, 4-[1-(4-fluorobenzyl)pyrrole-2-yl]-2,4-diketobutanoic acid]
